{"source": "patent US6603046B1", "about": "“Bis-aromatic a,β-unsaturated ketones” (Lica Pharmaceuticals A/S, priority 1992, dated 2003)", "data": [{"tested_on": "chloroquine resistant P. falciparum DD2 strain", "experiment": "In vitro growth of P. falciparum DD2, 3H-hypoxanthine uptake (Example 15)", "type": "cell-based, Plasmodium falciparum", "settings": "title: percentage inhibition of 3H-hypoxanthine uptake; 0.5 μg/ml", "units": {"Growth in % of control (mean ± SEM)": "%"}, "values": [{"compound": "C=CCOc1ccc(C(=O)/C=C/c2ccc(OC)c(OC)c2)cc1", "note": "[3,4-Dimethoxy-4′-allyloxychalcone, 3,4-dimethoxy-4′-prop-2-enyloxychalcone]", "Growth in % of control (mean ± SEM)": "0 ± 11.3"}, {"compound": "C=CCOc1ccc(C(=O)/C=C/c2cc(OC)cc(OC)c2)cc1", "note": "[3,5-Dimethoxy-4′-allylchalcone, 3,5-dimethoxy-4′-prop-2-enyloxychalcone]", "Growth in % of control (mean ± SEM)": "9.1 ± 5.2"}, {"compound": "COc1cccc(/C=C/C(=O)c2ccc(O)cc2)c1OC", "note": "[2,3-Dimethoxy-4′-hydroxychalcone]", "Growth in % of control (mean ± SEM)": "46 ± 22"}, {"compound": "CCOc1ccc(/C=C/C(=O)c2ccc(O)cc2)c(OCC)c1", "note": "[2,4-Diethoxy-4′-hydroxychalcone]", "Growth in % of control (mean ± SEM)": "14.5 ± 7.2"}, {"compound": "CCOc1ccc(/C=C/C(=O)c2ccccc2O)c(OCC)c1", "note": "[2,4-Diethoxy-2′-hydroxychalcone]", "Growth in % of control (mean ± SEM)": "23.1 ± 8.3"}, {"compound": "COCOc1ccc(C(=O)/C=C/c2ccc(OC)cc2OC)cc1", "note": "[2,4-Dimethoxy-4′-methoxymethoxychalcone, 2,4-dimethoxy-4′-methoxymethoxychalcone]", "Growth in % of control (mean ± SEM)": "14.0 ± 6.8"}, {"compound": "COc1ccc(OC)c(/C=C/C(=O)c2ccc(O)cc2)c1", "note": "[2,5-Dimethoxy-4′-hydroxychalcone]", "Growth in % of control (mean ± SEM)": "14 ± 75"}, {"compound": "COc1ccc(OC)c(/C=C/C(=O)c2ccccc2)c1", "note": "[2,5-Dimethoxychalcone]", "Growth in % of control (mean ± SEM)": "11 ± 7.7"}]}, {"tested_on": "chloroquine resistant P. falciparum DD2 strain", "experiment": "In vitro growth of P. falciparum DD2, 3H-hypoxanthine uptake (Example 15)", "type": "cell-based, Plasmodium falciparum", "settings": "title: percentage inhibition of 3H-hypoxanthine uptake; 1 μg/ml", "units": {"Growth in % of control (mean ± SEM)": "%"}, "values": [{"compound": "C=CCOc1ccc(C(=O)/C=C/c2ccc(OC)c(OC)c2)cc1", "note": "[3,4-Dimethoxy-4′-allyloxychalcone, 3,4-dimethoxy-4′-prop-2-enyloxychalcone]", "Growth in % of control (mean ± SEM)": "9.4 ± 15.8"}, {"compound": "C=CCOc1ccc(C(=O)/C=C/c2cc(OC)cc(OC)c2)cc1", "note": "[3,5-Dimethoxy-4′-allylchalcone, 3,5-dimethoxy-4′-prop-2-enyloxychalcone]", "Growth in % of control (mean ± SEM)": "3.4 ± 4.7"}, {"compound": "COc1cccc(/C=C/C(=O)c2ccc(O)cc2)c1OC", "note": "[2,3-Dimethoxy-4′-hydroxychalcone]", "Growth in % of control (mean ± SEM)": "54.4 ± 22.2"}, {"compound": "CCOc1ccc(/C=C/C(=O)c2ccc(O)cc2)c(OCC)c1", "note": "[2,4-Diethoxy-4′-hydroxychalcone]", "Growth in % of control (mean ± SEM)": "9 ± 7"}, {"compound": "CCOc1ccc(/C=C/C(=O)c2ccccc2O)c(OCC)c1", "note": "[2,4-Diethoxy-2′-hydroxychalcone]", "Growth in % of control (mean ± SEM)": "20.8 ± 8.8"}, {"compound": "COCOc1ccc(C(=O)/C=C/c2ccc(OC)cc2OC)cc1", "note": "[2,4-Dimethoxy-4′-methoxymethoxychalcone, 2,4-dimethoxy-4′-methoxymethoxychalcone]", "Growth in % of control (mean ± SEM)": "0 ± 10.9"}, {"compound": "COc1ccc(OC)c(/C=C/C(=O)c2ccc(O)cc2)c1", "note": "[2,5-Dimethoxy-4′-hydroxychalcone]", "Growth in % of control (mean ± SEM)": "21.2 ± 11.1"}, {"compound": "COc1ccc(OC)c(/C=C/C(=O)c2ccccc2)c1", "note": "[2,5-Dimethoxychalcone]", "Growth in % of control (mean ± SEM)": "5.5 ± 5.1"}]}, {"tested_on": "chloroquine resistant P. falciparum DD2 strain", "experiment": "In vitro growth of P. falciparum DD2, 3H-hypoxanthine uptake (Example 15)", "type": "cell-based, Plasmodium falciparum", "settings": "title: percentage inhibition of 3H-hypoxanthine uptake; 5 μg/ml", "units": {"Growth in % of control (mean ± SEM)": "%"}, "values": [{"compound": "C=CCOc1ccc(C(=O)/C=C/c2ccc(OC)c(OC)c2)cc1", "note": "[3,4-Dimethoxy-4′-allyloxychalcone, 3,4-dimethoxy-4′-prop-2-enyloxychalcone]", "Growth in % of control (mean ± SEM)": "16.2 ± 5.5"}, {"compound": "C=CCOc1ccc(C(=O)/C=C/c2cc(OC)cc(OC)c2)cc1", "note": "[3,5-Dimethoxy-4′-allylchalcone, 3,5-dimethoxy-4′-prop-2-enyloxychalcone]", "Growth in % of control (mean ± SEM)": "44 ± 8.1"}, {"compound": "COc1cccc(/C=C/C(=O)c2ccc(O)cc2)c1OC", "note": "[2,3-Dimethoxy-4′-hydroxychalcone]", "Growth in % of control (mean ± SEM)": "53.5 ± 20.1"}, {"compound": "CCOc1ccc(/C=C/C(=O)c2ccc(O)cc2)c(OCC)c1", "note": "[2,4-Diethoxy-4′-hydroxychalcone]", "Growth in % of control (mean ± SEM)": "54.2 ± 10.2"}, {"compound": "CCOc1ccc(/C=C/C(=O)c2ccccc2O)c(OCC)c1", "note": "[2,4-Diethoxy-2′-hydroxychalcone]", "Growth in % of control (mean ± SEM)": "33.7 ± 8.2"}, {"compound": "COCOc1ccc(C(=O)/C=C/c2ccc(OC)cc2OC)cc1", "note": "[2,4-Dimethoxy-4′-methoxymethoxychalcone, 2,4-dimethoxy-4′-methoxymethoxychalcone]", "Growth in % of control (mean ± SEM)": "0 ± 10.2"}, {"compound": "COc1ccc(OC)c(/C=C/C(=O)c2ccc(O)cc2)c1", "note": "[2,5-Dimethoxy-4′-hydroxychalcone]", "Growth in % of control (mean ± SEM)": "68.4 ± 6.8"}, {"compound": "COc1ccc(OC)c(/C=C/C(=O)c2ccccc2)c1", "note": "[2,5-Dimethoxychalcone]", "Growth in % of control (mean ± SEM)": "27.1 ± 5.3"}]}, {"tested_on": "chloroquine resistant P. falciparum DD2 strain", "experiment": "In vitro growth of P. falciparum DD2, 3H-hypoxanthine uptake (Example 15)", "type": "cell-based, Plasmodium falciparum", "settings": "title: percentage inhibition of 3H-hypoxanthine uptake; 10 μg/ml", "units": {"Growth in % of control (mean ± SEM)": "%"}, "values": [{"compound": "C=CCOc1ccc(C(=O)/C=C/c2ccc(OC)c(OC)c2)cc1", "note": "[3,4-Dimethoxy-4′-allyloxychalcone, 3,4-dimethoxy-4′-prop-2-enyloxychalcone]", "Growth in % of control (mean ± SEM)": "52.8 ± 4.7"}, {"compound": "C=CCOc1ccc(C(=O)/C=C/c2cc(OC)cc(OC)c2)cc1", "note": "[3,5-Dimethoxy-4′-allylchalcone, 3,5-dimethoxy-4′-prop-2-enyloxychalcone]", "Growth in % of control (mean ± SEM)": "79.1 ± 10.5"}, {"compound": "COc1cccc(/C=C/C(=O)c2ccc(O)cc2)c1OC", "note": "[2,3-Dimethoxy-4′-hydroxychalcone]", "Growth in % of control (mean ± SEM)": "67.6 ± 12.4"}, {"compound": "CCOc1ccc(/C=C/C(=O)c2ccc(O)cc2)c(OCC)c1", "note": "[2,4-Diethoxy-4′-hydroxychalcone]", "Growth in % of control (mean ± SEM)": "86.8 ± 7.3"}, {"compound": "CCOc1ccc(/C=C/C(=O)c2ccccc2O)c(OCC)c1", "note": "[2,4-Diethoxy-2′-hydroxychalcone]", "Growth in % of control (mean ± SEM)": "55.3 ± 7.4"}, {"compound": "COCOc1ccc(C(=O)/C=C/c2ccc(OC)cc2OC)cc1", "note": "[2,4-Dimethoxy-4′-methoxymethoxychalcone, 2,4-dimethoxy-4′-methoxymethoxychalcone]", "Growth in % of control (mean ± SEM)": "40.8 ± 9.3"}, {"compound": "COc1ccc(OC)c(/C=C/C(=O)c2ccc(O)cc2)c1", "note": "[2,5-Dimethoxy-4′-hydroxychalcone]", "Growth in % of control (mean ± SEM)": "92.5 ± 2.4"}, {"compound": "COc1ccc(OC)c(/C=C/C(=O)c2ccccc2)c1", "note": "[2,5-Dimethoxychalcone]", "Growth in % of control (mean ± SEM)": "58.8 ± 6.4"}]}]}
